Test results as given in PubChem BioAssay AID272 (DTP/NCI, 2004).
Values joined by “and” are separate entries in the source; they are usually repeats but may differ in a detail not shown here. Equal entries are not always repeated. Records with an inconclusive call do not appear.

Tested on: Lewis lung carcinoma i.m., BDF1 mice, T/C %
Assay: NCI In Vivo Anticancer Drug Screen. Data for tumor model Lewis Lung Carcinoma (intramuscular) in B6D2F1 (BDF1) mice
Procedure, shortened: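 Transplantable tumour model; readout survival or tumour size; value = treated (T) / vehicle control (C).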

[1] = endpoint: mean tumor weight (est.), dose: 5.0 mg/kg/injection, schedule: Q01DX011 (ip), vehicle: saline, higher = larger tumour
[2] = endpoint: median survival time, dose: 0.6 mg/kg/injection, schedule: Q01DX011 (ip), vehicle: saline, higher = longer survival
[3] = endpoint: median survival time, dose: 2.5 mg/kg/injection, schedule: Q01DX011 (ip), vehicle: saline, higher = longer survival
[4] = endpoint: median survival time, dose: 5.0 mg/kg/injection, schedule: Q01DX011 (ip), vehicle: saline, higher = longer survival
[5] = endpoint: median survival time, dose: 8.0 mg/kg/injection, schedule: Q01DX011 (ip), vehicle: saline, higher = longer survival
[6] = endpoint: median survival time, dose: 16.0 mg/kg/injection, schedule: Q01DX011 (ip), vehicle: saline, higher = longer survival

C(=C\c1ccccc1)/C[P+](c1ccccc1)(c1ccccc1)c1ccccc1
T/C (endpoint: mean tumor weight (est.), dose: 0.6 mg/kg/injection, schedule: Q01DX011 (ip), vehicle: saline, higher = larger tumour): 101 % of control
T/C (endpoint: mean tumor weight (est.), dose: 1.25 mg/kg/injection, schedule: Q01DX011 (ip), vehicle: saline, higher = larger tumour): 100 % of control
T/C (endpoint: mean tumor weight (est.), dose: 2.5 mg/kg/injection, schedule: Q01DX011 (ip), vehicle: saline, higher = larger tumour): 105 % of control
T/C [1]: 93 % of control
T/C [2]: 98 % of control
T/C (endpoint: median survival time, dose: 1.25 mg/kg/injection, schedule: Q01DX011 (ip), vehicle: saline, higher = longer survival): 107 % of control
T/C [3]: 98 % of control
T/C [4]: 100 % of control

Cc1ccc(NC(=O)N(CCCl)N=O)cc1C
T/C (endpoint: median survival time, dose: 8.4 mg/kg/injection, schedule: Q07DX003 (ip), vehicle: Klucel (hydroxypropylcellulose) (HPC), higher = longer survival): 106 % of control
T/C (endpoint: median survival time, dose: 14.0 mg/kg/injection, schedule: Q07DX003 (ip), vehicle: Klucel (hydroxypropylcellulose) (HPC), higher = longer survival): 91 % of control
T/C (endpoint: median survival time, dose: 23.0 mg/kg/injection, schedule: Q07DX003 (ip), vehicle: Klucel (hydroxypropylcellulose) (HPC), higher = longer survival): 97 % of control

CC(=O)NNC(=O)c1ccccn1
T/C (endpoint: median survival time, dose: 8.0 mg/kg/injection, schedule: Q01DX Z (ip), vehicle: other, higher = longer survival): 86 % of control
T/C (endpoint: median survival time, dose: 16.0 mg/kg/injection, schedule: Q01DX Z (ip), vehicle: other, higher = longer survival): 86 % of control
T/C (endpoint: median survival time, dose: 32.0 mg/kg/injection, schedule: Q01DX Z (ip), vehicle: other, higher = longer survival): 86 % of control
T/C (endpoint: median survival time, dose: 64.0 mg/kg/injection, schedule: Q01DX Z (ip), vehicle: other, higher = longer survival): 91 % of control

O=C(CCl)Nc1ccc(C(=O)O)cc1
T/C (endpoint: median survival time, dose: 3.75 mg/kg/injection, schedule: Q01DX011 (ip), vehicle: saline with Tween-80, higher = longer survival): 106 % of control
T/C (endpoint: median survival time, dose: 7.5 mg/kg/injection, schedule: Q01DX011 (ip), vehicle: saline with Tween-80, higher = longer survival): 97 % of control
T/C (endpoint: median survival time, dose: 15.0 mg/kg/injection, schedule: Q01DX011 (ip), vehicle: saline with Tween-80, higher = longer survival): 100 % of control

O=C(Nc1ccc(C2=NCCN2)cc1)c1ccc(C(=O)Nc2ccc(C3=NCCN3)cc2)c(Cl)c1
T/C (endpoint: median survival time, dose: 4.0 mg/kg/injection, schedule: Q01DX011 (ip), vehicle: water, higher = longer survival): 90 % of control

CNC(=S)N/N=C/CCC/C=N/NC(=S)NC
T/C (endpoint: mean tumor weight (est.), dose: 18.75 mg/kg/injection, schedule: Q01DX011 (ip), vehicle: saline with Tween-80, higher = larger tumour): 112 % of control
T/C (endpoint: mean tumor weight (est.), dose: 37.5 mg/kg/injection, schedule: Q01DX011 (ip), vehicle: saline with Tween-80, higher = larger tumour): 91 % of control
T/C (endpoint: mean tumor weight (est.), dose: 75.0 mg/kg/injection, schedule: Q01DX011 (ip), vehicle: saline with Tween-80, higher = larger tumour): 53 % of control
T/C (endpoint: median survival time, dose: 18.75 mg/kg/injection, schedule: Q01DX011 (ip), vehicle: saline with Tween-80, higher = longer survival): 90 % of control
T/C (endpoint: median survival time, dose: 37.5 mg/kg/injection, schedule: Q01DX011 (ip), vehicle: saline with Tween-80, higher = longer survival): 94 % of control
T/C (endpoint: median survival time, dose: 75.0 mg/kg/injection, schedule: Q01DX011 (ip), vehicle: saline with Tween-80, higher = longer survival): 102 % of control

CC(C)NCC(=O)c1ccc(O)c(O)c1
T/C (endpoint: mean tumor weight (est.), dose: 42.5 mg/kg/injection, schedule: Q01DX011 (ip), vehicle: saline, higher = larger tumour): 90 % of control
T/C (endpoint: mean tumor weight (est.), dose: 85.0 mg/kg/injection, schedule: Q01DX011 (ip), vehicle: saline, higher = larger tumour): 93 % of control
T/C (endpoint: median survival time, dose: 42.5 mg/kg/injection, schedule: Q01DX011 (ip), vehicle: saline, higher = longer survival): 120 % of control
T/C (endpoint: median survival time, dose: 85.0 mg/kg/injection, schedule: Q01DX011 (ip), vehicle: saline, higher = longer survival): 90 % of control

CCCCCCCCCCCCCCCCCC[n+]1cccc(C(=O)N2CCOCC2)c1
T/C (endpoint: mean tumor weight (est.), dose: 2.0 mg/kg/injection, schedule: Q01DX011 (ip), vehicle: saline, higher = larger tumour): 82 % of control
T/C (endpoint: mean tumor weight (est.), dose: 4.0 mg/kg/injection, schedule: Q01DX011 (ip), vehicle: saline, higher = larger tumour): 83 % of control
T/C (endpoint: mean tumor weight (est.), dose: 8.0 mg/kg/injection, schedule: Q01DX011 (ip), vehicle: saline, higher = larger tumour): 71 % of control
T/C (endpoint: mean tumor weight (est.), dose: 16.0 mg/kg/injection, schedule: Q01DX011 (ip), vehicle: saline, higher = larger tumour): 64 % of control
T/C (endpoint: median survival time, dose: 2.0 mg/kg/injection, schedule: Q01DX011 (ip), vehicle: saline, higher = longer survival): 101 % of control
T/C (endpoint: median survival time, dose: 4.0 mg/kg/injection, schedule: Q01DX011 (ip), vehicle: saline, higher = longer survival): 103 % of control
T/C [5]: 105 % of control
T/C [6]: 94 % of control

Cc1c(O)ccc(=O)n1O
T/C (endpoint: mean tumor weight (est.), dose: 27.5 mg/kg/injection, schedule: Q01DX011 (ip), vehicle: saline, higher = larger tumour): 99 % of control
T/C (endpoint: mean tumor weight (est.), dose: 55.0 mg/kg/injection, schedule: Q01DX011 (ip), vehicle: saline, higher = larger tumour): 121 % of control
T/C (endpoint: mean tumor weight (est.), dose: 110.0 mg/kg/injection, schedule: Q01DX011 (ip), vehicle: saline, higher = larger tumour): 84 % of control
T/C (endpoint: mean tumor weight (est.), dose: 220.0 mg/kg/injection, schedule: Q01DX011 (ip), vehicle: saline, higher = larger tumour): 79 % of control
T/C (endpoint: median survival time, dose: 27.5 mg/kg/injection, schedule: Q01DX011 (ip), vehicle: saline, higher = longer survival): 103 % of control
T/C (endpoint: median survival time, dose: 55.0 mg/kg/injection, schedule: Q01DX011 (ip), vehicle: saline, higher = longer survival): 96 % of control
T/C (endpoint: median survival time, dose: 110.0 mg/kg/injection, schedule: Q01DX011 (ip), vehicle: saline, higher = longer survival): 98 % of control
T/C (endpoint: median survival time, dose: 220.0 mg/kg/injection, schedule: Q01DX011 (ip), vehicle: saline, higher = longer survival): 121 % of control

O=C1C=C(N2CC2)c2ccccc2C1=O
T/C [1]: 74 % of control
T/C (endpoint: mean tumor weight (est.), dose: 10.0 mg/kg/injection, schedule: Q01DX011 (ip), vehicle: saline, higher = larger tumour): 58 % of control
T/C [4]: 100 % of control
T/C (endpoint: median survival time, dose: 10.0 mg/kg/injection, schedule: Q01DX011 (ip), vehicle: saline, higher = longer survival): 100 % of control

FC(F)(F)c1nc2nc(Cl)c(Cl)nc2[nH]1
T/C [5]: 107 % of control
T/C [6]: 112 % of control
T/C (endpoint: median survival time, dose: 32.0 mg/kg/injection, schedule: Q01DX011 (ip), vehicle: saline, higher = longer survival): 116 % of control

N[C@@H](Cc1ccc(N(CCCl)CCCl)cc1)C(=O)O
T/C (endpoint: mean tumor weight, dose: 0.38 mg/kg/injection, schedule: Q01DX011 (ip), vehicle: other, higher = larger tumour): 55 % of control
T/C (endpoint: mean tumor weight, dose: 0.38 mg/kg/injection, schedule: Q01DX011 (ip), vehicle: saline, higher = larger tumour): 86 % of control
T/C (endpoint: mean tumor weight, dose: 0.75 mg/kg/injection, schedule: Q01DX011 (ip), vehicle: other, higher = larger tumour): 48 % of control
T/C (endpoint: mean tumor weight, dose: 0.75 mg/kg/injection, schedule: Q01DX011 (ip), vehicle: saline, higher = larger tumour): 77 % of control
T/C (endpoint: mean tumor weight, dose: 1.5 mg/kg/injection, schedule: Q01DX011 (ip), vehicle: other, higher = larger tumour): 69 % of control
T/C (endpoint: mean tumor weight, dose: 3.0 mg/kg/injection, schedule: Q01DX011 (ip), vehicle: other, higher = larger tumour): 29 % of control
T/C (endpoint: mean tumor weight, dose: 3.0 mg/kg/injection, schedule: Q01DX011 (ip), vehicle: saline, higher = larger tumour): 47 % of control and 59 % of control
T/C (endpoint: median survival time, dose: 0.38 mg/kg/injection, schedule: Q01DX011 (ip), vehicle: other, higher = longer survival): 111 % of control
T/C (endpoint: median survival time, dose: 0.38 mg/kg/injection, schedule: Q01DX011 (ip), vehicle: saline, higher = longer survival): 105 % of control and 112 % of control
T/C [2]: 104 % of control and 116 % of control
T/C (endpoint: median survival time, dose: 0.75 mg/kg/injection, schedule: Q01DX011 (ip), vehicle: other, higher = longer survival): 118 % of control
T/C (endpoint: median survival time, dose: 0.75 mg/kg/injection, schedule: Q01DX011 (ip), vehicle: saline, higher = longer survival): 110 % of control and 112 % of control and 120 % of control
T/C (endpoint: median survival time, dose: 1.2 mg/kg/injection, schedule: Q01DX011 (ip), vehicle: saline, higher = longer survival): 108 % of control
T/C (endpoint: median survival time, dose: 1.5 mg/kg/injection, schedule: Q01DX011 (ip), vehicle: other, higher = longer survival): 101 % of control
T/C (endpoint: median survival time, dose: 1.5 mg/kg/injection, schedule: Q01DX011 (ip), vehicle: saline, higher = longer survival): 91 % of control
T/C [3]: 103 % of control
T/C (endpoint: median survival time, dose: 3.24 mg/kg/injection, schedule: Q01DX001 (ip), vehicle: saline, higher = longer survival): 108 % of control
T/C (endpoint: median survival time, dose: 5.4 mg/kg/injection, schedule: Q01DX001 (ip), vehicle: saline, higher = longer survival): 119 % of control

Nc1nc(Cl)nc2c1ncn2C1OC(CO)C(O)C1O (configuration not stated)
T/C (endpoint: mean tumor weight (est.), dose: 25.0 mg/kg/injection, schedule: Q01DX011 (ip), vehicle: saline with Tween-80, higher = larger tumour): 72 % of control
T/C (endpoint: mean tumor weight (est.), dose: 50.0 mg/kg/injection, schedule: Q01DX011 (ip), vehicle: saline with Tween-80, higher = larger tumour): 72 % of control
T/C (endpoint: mean tumor weight (est.), dose: 100.0 mg/kg/injection, schedule: Q01DX011 (ip), vehicle: saline with Tween-80, higher = larger tumour): 36 % of control
T/C (endpoint: median survival time, dose: 25.0 mg/kg/injection, schedule: Q01DX011 (ip), vehicle: saline with Tween-80, higher = longer survival): 102 % of control
T/C (endpoint: median survival time, dose: 50.0 mg/kg/injection, schedule: Q01DX011 (ip), vehicle: saline with Tween-80, higher = longer survival): 93 % of control

CCC[CH2][Sn]1([CH2]CCC)[O]OC(c2ccccc2)[O]1 (configuration not stated)
T/C (endpoint: median survival time, dose: 0.5 mg/kg/injection, schedule: Q01DX009 (ip), vehicle: saline, higher = longer survival): 107 % of control
T/C (endpoint: median survival time, dose: 1.0 mg/kg/injection, schedule: Q01DX009 (ip), vehicle: saline, higher = longer survival): 114 % of control
T/C (endpoint: median survival time, dose: 2.0 mg/kg/injection, schedule: Q01DX009 (ip), vehicle: saline, higher = longer survival): 106 % of control
T/C (endpoint: median survival time, dose: 4.0 mg/kg/injection, schedule: Q01DX009 (ip), vehicle: saline, higher = longer survival): 113 % of control

COC(=O)CC(OC)c1nc(C(=O)OC)c(C)c(=O)[nH]1 (configuration not stated)
T/C (endpoint: median survival time, dose: 8.0 mg/kg/injection, schedule: Q01DX009 (ip), vehicle: Klucel (hydroxypropylcellulose) (HPC), higher = longer survival): 114 % of control
T/C (endpoint: median survival time, dose: 16.0 mg/kg/injection, schedule: Q01DX009 (ip), vehicle: Klucel (hydroxypropylcellulose) (HPC), higher = longer survival): 123 % of control
T/C (endpoint: median survival time, dose: 32.0 mg/kg/injection, schedule: Q01DX009 (ip), vehicle: Klucel (hydroxypropylcellulose) (HPC), higher = longer survival): 88 % of control
